Test results taken from PubChem BioAssay (NCI).
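Growth conditions: 96-well plates. Treatment: test compound, 48 hours, 5 concentrations. Analysis: linear interpolation between bracketing concentrations; unreached endpoints set to highest concentration. TGI denotes the concentration required for complete inhibition of growth.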

What was measured:
Experiment in all cases: DTP human tumour cell line panel, 48 h
COLO 205 colon = tested on: COLO 205 colon
EKVX NSCLC = tested on: EKVX NSCLC
SK-OV-3 ovarian = tested on: SK-OV-3 ovarian
NCI-H522 lung = tested on: NCI-H522 lung
SF-268 CNS = tested on: SF-268 CNS
HT29 colon = tested on: HT29 colon
KM20L2 colon = tested on: KM20L2 colon
M19-MEL melanoma = tested on: M19-MEL melanoma
RXF-631 renal = tested on: RXF-631 renal
RXF 393 renal = tested on: RXF 393 renal
HCT-15 colon = tested on: HCT-15 colon
NCI-H23 lung = tested on: NCI-H23 lung
M14 melanoma = tested on: M14 melanoma
XF 498 CNS = tested on: XF 498 CNS
TK-10 renal = tested on: TK-10 renal
HCT-116 colon = tested on: HCT-116 colon
SK-MEL-28 melanoma = tested on: SK-MEL-28 melanoma
OVCAR-8 ovarian = tested on: OVCAR-8 ovarian
LXFL 529 NSCLC = tested on: LXFL 529 NSCLC
CCRF-CEM leukemia = tested on: CCRF-CEM leukemia
IGROV1 ovarian = tested on: IGROV1 ovarian
DMS 273 small cell lung = tested on: DMS 273 small cell lung
786-0 renal = tested on: 786-0 renal
SNB-75 CNS = tested on: SNB-75 CNS
MALME-3M melanoma = tested on: MALME-3M melanoma
UO-31 renal = tested on: UO-31 renal
LOX IMVI melanoma = tested on: LOX IMVI melanoma
SW-620 colon = tested on: SW-620 colon
NCI-H460 lung = tested on: NCI-H460 lung
SN12C renal = tested on: SN12C renal
UACC-257 melanoma = tested on: UACC-257 melanoma
SF-295 CNS = tested on: SF-295 CNS
SNB-19 CNS = tested on: SNB-19 CNS
HOP-92 NSCLC = tested on: HOP-92 NSCLC
SK-MEL-2 melanoma = tested on: SK-MEL-2 melanoma
SR leukemia = tested on: SR leukemia
NCI-H226 lung = tested on: NCI-H226 lung
KM12 colon = tested on: KM12 colon
OVCAR-4 ovarian = tested on: OVCAR-4 ovarian
UACC-62 melanoma = tested on: UACC-62 melanoma
HCC-2998 colon = tested on: HCC-2998 colon
SF-539 CNS = tested on: SF-539 CNS
HL-60(TB) leukemia = tested on: HL-60(TB) leukemia
HOP-62 NSCLC = tested on: HOP-62 NSCLC
MOLT-4 leukemia = tested on: MOLT-4 leukemia
DLD-1 colon = tested on: DLD-1 colon
OVCAR-3 ovarian = tested on: OVCAR-3 ovarian
CAKI-1 renal = tested on: CAKI-1 renal
HOP-18 NSCLC = tested on: HOP-18 NSCLC
ACHN renal = tested on: ACHN renal
SK-MEL-5 melanoma = tested on: SK-MEL-5 melanoma
A549 NSCLC = tested on: A549 NSCLC
A498 renal = tested on: A498 renal
U251 CNS = tested on: U251 CNS
K-562 leukemia = tested on: K-562 leukemia
SNB-78 CNS = tested on: SNB-78 CNS
RPMI-8226 leukemia = tested on: RPMI-8226 leukemia
OVCAR-5 ovarian = tested on: OVCAR-5 ovarian

C=C(C)CC(C)(c1cc2ccccc2n1C)N1CCOCC1 (stereo not given)
TGI (COLO 205 colon): > 100 µM | TGI (EKVX NSCLC): > 100 µM | TGI (SK-OV-3 ovarian): > 100 µM | TGI (NCI-H522 lung): 60.9 µM | TGI (SF-268 CNS): > 100 µM | TGI (HT29 colon): > 100 µM | TGI (KM20L2 colon): > 100 µM | TGI (M19-MEL melanoma): > 100 µM | TGI (RXF-631 renal): > 100 µM | TGI (RXF 393 renal): > 100 µM | TGI (HCT-15 colon): > 100 µM | TGI (NCI-H23 lung): > 100 µM | TGI (M14 melanoma): > 100 µM | TGI (XF 498 CNS): > 100 µM | TGI (TK-10 renal): > 100 µM | TGI (HCT-116 colon): > 100 µM | TGI (SK-MEL-28 melanoma): > 100 µM | TGI (OVCAR-8 ovarian): > 100 µM | TGI (LXFL 529 NSCLC): > 100 µM | TGI (CCRF-CEM leukemia): > 100 µM | TGI (IGROV1 ovarian): > 100 µM | TGI (DMS 273 small cell lung): > 100 µM | TGI (786-0 renal): > 100 µM | TGI (SNB-75 CNS): > 100 µM | TGI (MALME-3M melanoma): > 100 µM | TGI (UO-31 renal): > 100 µM | TGI (LOX IMVI melanoma): > 100 µM | TGI (SW-620 colon): > 100 µM | TGI (NCI-H460 lung): > 100 µM | TGI (SN12C renal): > 100 µM | TGI (UACC-257 melanoma): > 100 µM | TGI (SF-295 CNS): > 100 µM | TGI (SNB-19 CNS): > 100 µM | TGI (HOP-92 NSCLC): > 100 µM | TGI (SK-MEL-2 melanoma): > 100 µM | TGI (SR leukemia): > 100 µM | TGI (NCI-H226 lung): > 100 µM | TGI (KM12 colon): > 100 µM | TGI (OVCAR-4 ovarian): > 100 µM | TGI (UACC-62 melanoma): > 100 µM | TGI (HCC-2998 colon): > 100 µM | TGI (SF-539 CNS): > 100 µM | TGI (HL-60(TB) leukemia): > 100 µM | TGI (HOP-62 NSCLC): > 100 µM | TGI (MOLT-4 leukemia): > 100 µM | TGI (DLD-1 colon): > 100 µM | TGI (OVCAR-3 ovarian): > 100 µM | TGI (CAKI-1 renal): > 100 µM | TGI (HOP-18 NSCLC): > 100 µM | TGI (ACHN renal): > 100 µM | TGI (SK-MEL-5 melanoma): > 100 µM | TGI (A549 NSCLC): > 100 µM

Cn1cnc([N+](=O)[O-])c1Sc1nc2ccc([N+](=O)[O-])cc2[nH]1
TGI (COLO 205 colon): 23.4 µM | TGI (EKVX NSCLC): 46.7 µM | TGI (SK-OV-3 ovarian): 62.5 µM | TGI (SF-268 CNS): 53.1 µM | TGI (HT29 colon): > 100 µM | TGI (KM20L2 colon): > 100 µM | TGI (M19-MEL melanoma): 44.5 µM | TGI (RXF 393 renal): 40.1 µM | TGI (HCT-15 colon): 38.8 µM | TGI (NCI-H23 lung): 72 µM | TGI (M14 melanoma): > 100 µM | TGI (XF 498 CNS): 28.9 µM | TGI (TK-10 renal): 59.3 µM | TGI (A498 renal): 83.4 µM | TGI (HCT-116 colon): 57.8 µM | TGI (U251 CNS): > 100 µM | TGI (SK-MEL-28 melanoma): 37.6 µM | TGI (OVCAR-8 ovarian): 39.2 µM | TGI (LXFL 529 NSCLC): 26.9 µM | TGI (K-562 leukemia): 69.2 µM | TGI (CCRF-CEM leukemia): 81.1 µM | TGI (IGROV1 ovarian): 58.6 µM | TGI (DMS 273 small cell lung): 4.68 µM | TGI (786-0 renal): > 100 µM | TGI (SNB-75 CNS): 81.8 µM | TGI (UO-31 renal): 67.6 µM | TGI (LOX IMVI melanoma): 60.1 µM | TGI (SW-620 colon): > 100 µM | TGI (NCI-H460 lung): > 100 µM | TGI (SNB-78 CNS): 81 µM | TGI (UACC-257 melanoma): 33.5 µM | TGI (SF-295 CNS): > 100 µM | TGI (SNB-19 CNS): > 100 µM | TGI (HOP-92 NSCLC): 39.8 µM | TGI (SR leukemia): 41.5 µM | TGI (NCI-H226 lung): > 100 µM | TGI (KM12 colon): > 100 µM | TGI (OVCAR-4 ovarian): > 100 µM | TGI (UACC-62 melanoma): 28.2 µM | TGI (HCC-2998 colon): 29.2 µM | TGI (SF-539 CNS): 44 µM | TGI (HL-60(TB) leukemia): > 100 µM | TGI (HOP-62 NSCLC): > 100 µM | TGI (MOLT-4 leukemia): 47.7 µM | TGI (RPMI-8226 leukemia): 67.5 µM | TGI (DLD-1 colon): 32.6 µM | TGI (OVCAR-3 ovarian): > 100 µM | TGI (CAKI-1 renal): 26.7 µM | TGI (HOP-18 NSCLC): > 100 µM | TGI (ACHN renal): > 100 µM | TGI (SK-MEL-5 melanoma): 30.6 µM | TGI (A549 NSCLC): > 100 µM | TGI (OVCAR-5 ovarian): > 100 µM
